Reference: paper PMC12154426, “TPP-Based Nanovesicles Kill MDR Neuroblastoma Cells and Induce Moderate ROS Increase, While Exerting Low Toxicity Towards Primary Cell Cultures: An In Vitro Study” (International Journal of Molecular Sciences, 2025)
Values joined by “and” are separate entries in the source; they are usually repeats but may differ in a detail not shown here. Equal entries are not always repeated.

System: spinal cord astrocytes
Experiment: MTT cytotoxicity assay on spinal cord astrocyte primary cell cultures
Assay type: cell-based, C57BL/6J mice
Conditions: for IC50: 0.12–11.73 µM
Source text: Similarly to the assessment of haemolytic toxicity, the evaluation of cytotoxicity towards mammalian cells is another pivotal step to afford in the early stage of drug development, before undertaking other costly and time-consuming in vivo experiments. […] The cytotoxicity of quaternary phosphonium salts (QPSs) depends mainly on their physicochemical characteristics, including the number of carbon atoms of alkyl chains, the presence of aromatic ring(s) on which the P^+ cationic charge can delocalize, the type of counter anions, the possible colloidal properties, and the probable capability to form nano aggregates. The specific types of cells exposed to QPSs can further influence their cytotoxicity. In this regard, the constituents of membranes of cancer cells are different from those of mammalian cells. This makes them more susceptible to the disruptive action of cationic compounds, thus making QPSs’ possible cytotoxicity towards tumour cells higher than towards normal ones. Anyway, a certain cytotoxicity could manifest also in normal cells and quantifying it is mandatory. Based on these considerations, although NB is a neuroendocrine tumour which derives from neural crest cells, we investigated the BPPB toxic effects on primary cell cultures, namely spinal cord astrocytes and cortical neurons. Astrocyte primary cultures have emerged as an important tool for understanding the responses of normal cells under both physiological and pathological conditions. On the other hand, primary neuronal cell cultures are best suited for drug discovery and drug development. Primary cell cultures freshly prepared from animals reproduce physiological conditions astonishingly like the in vivo situation. As for our knowledge, it is the first time that the cytotoxicity of a bola amphiphilic compound is assessed on primary cultures of astrocytes and neurons. More generically, the existent studies on the cytotoxicity of synthetic QPSs, or of a generic exogenous synthetic cationic organic compound or polymer on astrocytes and neurons primary cell cultures, are limited. As examples, upon a rapid survey, we have found a study on the mechanism by which amine-modified cationic polystyrene nanoparticles induced cell death in a human brain astrocytoma cell line, but not in primary astrocytes. A study on the mechanism by which endogenous eosinophil cationic protein/RNase 3 induced cell death in primary astrocytes was found, but exogenous synthetic cationic compounds were not considered. Concerning primary neurons, the cytotoxicity of both a commercial (LA2000) and a newly prepared cationic lipid (Arg (TFA^−)) vs. primary neurons was assessed by Aoshima et al.. The cytotoxicity of a library of 80 compounds, among which only 2/3 molecules were cationic salts, was evaluated in human-induced pluripotent stem cell (iPSC)-derived neural stem cells, neurons, and astrocytes by Pei et al.. Vidal et al. assessed the neurotoxicity of a cationic fourth generation (G4) amine dendrimer (G4-NH2) towards primary neuron cell cultures. […] Cell viability in neurons and astrocytes, treated with increasing concentrations of BPPB for 24, 48, and 72 h, was assessed using the MTT essay, which is a method endowed with simplicity, convenience, quantitative and high throughput, as well as reproducibility. MTT is a well-established method for assessing cell viability, and its reliability is supported by standardized protocols in many areas of research.
Astrocytes were prepared from the spinal cord of neonatal 2-day-old C57BL/6J mice as previously described, with minor modifications. Briefly, two days after birth, pups (P1-2) were euthanized by cervical dislocation by trained personnel, and spinal cords were rapidly removed. […]

c1ccc([P+](CCCCCCCCCCCC[P+](c2ccccc2)(c2ccccc2)c2ccccc2)(c2ccccc2)c2ccccc2)cc1 [BPPB, 1,1-(1,12-dodecanediyl)-bis-[1,1,1]-triphenyl phosphonium di-bromide]
cell viability (1.17 µM, 48 h): 72.17%
cell viability (1.17 µM, 72 h): 69.31%
cell viability (2.93 µM, 24 h): 74.95%
cell viability (8.80 µM, 24 h): 47.14%
cell viability (8.80 µM, 72 h): 42.70%
cell viability (11.73 µM, 24 h): 20.22%
cell viability (11.73 µM, 48 h): 45.18%
IC50 (24 h exposure): ~7.04 µM and 7.04 µM
IC50 (48 h exposure): 11 ± 5.09 µM
IC50 (72 h exposure): 5.09 ± 1.22 µM
SI values with respect to primary spinal cord astrocytes (HTLA 230 and HTLA ER, all exposure timings): 4.25–23.73
selectivity index values (NB cells with respect to neurons and astrocytes, maximum): up to 23.7
SI 24 h (Spinal cord astrocytes vs. HTLA 230, 24 h): 7.61
SI 48 h (Spinal cord astrocytes vs. HTLA 230, 48 h): 23.73
SI 72 h (Spinal cord astrocytes vs. HTLA 230, 72 h): 13.09
SI 24 h (Spinal cord astrocytes vs. HTLA ER, 24 h): 5.69
SI 48 h (Spinal cord astrocytes vs. HTLA ER, 48 h): 8.10
SI 72 h (Spinal cord astrocytes vs. HTLA ER, 72 h): 4.25
